Experiments:
[1] = biological target: T1, Suppressor of tumorigenicity 14 protein (Homo sapiens) (UniProt Q9Y5Y6); experiment: Binding affinity to recombinant hexahistidine tagged human MT-SP1 (596 to 855 residues) expressed in Escherichia coli BL21 gold (DE3) cells assessed as change in entropy by ITC analysis
T1 sequence (whole entry): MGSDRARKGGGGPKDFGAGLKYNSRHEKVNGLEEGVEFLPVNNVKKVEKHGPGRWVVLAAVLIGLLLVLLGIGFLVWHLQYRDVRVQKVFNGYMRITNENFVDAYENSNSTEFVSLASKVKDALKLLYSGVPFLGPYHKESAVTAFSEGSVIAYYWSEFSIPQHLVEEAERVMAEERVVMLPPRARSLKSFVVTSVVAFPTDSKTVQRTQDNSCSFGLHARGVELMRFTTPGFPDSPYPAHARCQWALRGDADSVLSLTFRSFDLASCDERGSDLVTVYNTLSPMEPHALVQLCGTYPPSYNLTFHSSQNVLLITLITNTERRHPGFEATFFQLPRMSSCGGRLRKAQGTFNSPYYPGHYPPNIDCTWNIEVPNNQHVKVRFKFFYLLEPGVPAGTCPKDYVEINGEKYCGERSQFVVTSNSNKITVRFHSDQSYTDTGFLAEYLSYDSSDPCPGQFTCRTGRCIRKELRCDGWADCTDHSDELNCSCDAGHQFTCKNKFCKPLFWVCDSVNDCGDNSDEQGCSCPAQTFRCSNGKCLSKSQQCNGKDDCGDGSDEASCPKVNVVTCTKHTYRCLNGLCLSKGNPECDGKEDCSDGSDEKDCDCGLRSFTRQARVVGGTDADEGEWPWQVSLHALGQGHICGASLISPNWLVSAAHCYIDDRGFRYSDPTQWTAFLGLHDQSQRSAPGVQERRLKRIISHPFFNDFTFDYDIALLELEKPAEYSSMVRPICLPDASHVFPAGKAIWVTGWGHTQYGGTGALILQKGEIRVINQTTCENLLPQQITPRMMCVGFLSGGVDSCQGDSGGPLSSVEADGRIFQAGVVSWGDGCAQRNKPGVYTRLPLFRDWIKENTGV

[2] = biological target: T1, Suppressor of tumorigenicity 14 protein (Homo sapiens); experiment: Binding affinity to recombinant hexahistidine tagged human MT-SP1 (596 to 855 residues) expressed in Escherichia coli BL21 gold (DE3) cells assessed as free energy change by ITC analysis
[3] = biological target: T2, Suppressor of tumorigenicity 14 protein (Homo sapiens, UniProt Q9Y5Y6); experiment: Inhibition of human matriptase using Mes-D-Pro-Arg-AMC.2TFA as substrate incubated for 10 mins by fluorescence based assay
T2 sequence (Q9Y5Y6 whole entry): T1 sequence (whole entry)

[4] = biological target: T1, Suppressor of tumorigenicity 14 protein (Homo sapiens); experiment: Binding affinity to recombinant hexahistidine tagged human MT-SP1 (596 to 855 residues) expressed in Escherichia coli BL21 gold (DE3) cells assessed as change in enthalpy by ITC analysis
[5] = biological target: T2, Suppressor of tumorigenicity 14 protein; experiment: Binding affinity to recombinant hexahistidine tagged human MT-SP1 (596 to 855 residues) expressed in Escherichia coli BL21 gold (DE3) cells […] by ITC analysis
[6] = biological target: T2, Suppressor of tumorigenicity 14 protein; experiment: Inhibition of recombinant hexahistidine tagged human MT-SP1 (596 to 855 residues) expressed in Escherichia coli BL21 gold (DE3) cells using Boc-Leu-Arg-Arg-AMC as substrate measured every 30 secs for 10 mins by fluorescence based assay

N=C(N)c1ccc(CCNC(=O)C(C(=O)NCCc2ccc(C(=N)N)cc2)C(=O)NCc2ccc(C(=N)N)cc2)cc1 (stereo not given)
-TdeltaS [1]: -7.19 kcal/mol
deltaG [2]: -8.82 kcal/mol
Ki [3]: 393 nM
deltaH [4]: -1.63 kcal/mol
Kd [5]: 392 nM

NCc1ccc(Oc2cc(Oc3ccc(CN)cc3)cc(Oc3ccc(CN)cc3)c2)cc1
Ki [6]: 18400 nM
-TdeltaS [1]: -8.15 kcal/mol
deltaG [2]: -6.91 kcal/mol
deltaH [4]: 1.24 kcal/mol
Kd [5]: 10200 nM

N=C(N)c1ccc(Oc2cc(Oc3ccc(CN)cc3)cc(Oc3ccc(CN)cc3)c2)cc1
Ki [6]: 775 nM
-TdeltaS [1]: -9.7 kcal/mol
deltaG [2]: -7.67 kcal/mol
deltaH [4]: 2.03 kcal/mol
Kd [5]: 2520 nM

N=C(N)c1ccc(CCNC(=O)CC(=O)NCCc2ccc(C(=N)N)cc2)cc1
-TdeltaS [1]: -4.64 kcal/mol
deltaG [2]: -7.98 kcal/mol
Ki [3]: 4230 nM
deltaH [4]: -3.35 kcal/mol
Kd [5]: 1450 nM
